In patent US7745431B2, “Pharmaceutical composition of 1-(3,4-dimethoxyphenyl)-4-methyl-5-ethyl-7-methoxy-8-hydroxy-5H-2,3-benzodiazepine and uses thereof” (priority 2002, dated 2010):
Read-outs that look alike come from different tables or passages of the source.

Experiments:
[1] = tested on: adenosine receptor; experiment: Adenosine binding assay, [3H]-NECA, bovine striatal membrane
Description: The ability of 1-(3,4-dimethoxyphenyl)-4-methyl-5-ethyl-7-methoxy-8-hydroxy-5H-2,3-benzodiazepine to inhibit the binding of [^3H]5′-N-ethylcarboxamidoadenosine (NECA) (15-30 Ci/mmol) was determined via the bovine striatal membrane assay of Bruns et al., “Characterization of the A2 Adenosine Receptor Labeled by [^3H]-NECA in Rat Striatal Membrane”, Pharmacology, 29: 331-346 (1986), with modifications. See also, Weir et al. “Inhibition of N6-[^3H]CHA Binding by Carbamazepine” Epilepsia, 31(5), 503-512 (1990) with modifications; and Holtzman et al., “Role of Adenosine Receptors in Caffeine Tolerance,” J. Pharmacol. & Exp. Ther., 256(1), 62-67 (1990).
(§1) Reactions were carried out in 50 mM TRIS-HCl (pH 7.7) at 25° C. for 60 minutes. The reaction was terminated by rapid vacuum filtration onto glass fiber filters. Radioactivity trapped onto the filters was determined and compared to control values in order to ascertain any interactions of test compound with the adenosine binding site.

[2] = biological target: T1, TXA2 receptor (Homo sapiens, UniProt P21731); experiment: TXA2 binding assay, [3H]SQ 29,548, human platelet-based; details: for inhibition at 10 µM: inhibition of [3H]SQ 29,548 binding, human platelets
T1 construct: determined via the human platelet-based assay of Hedberg et al; from tissue; host or cells: human platelets
T1 sequence (P21731 1-343): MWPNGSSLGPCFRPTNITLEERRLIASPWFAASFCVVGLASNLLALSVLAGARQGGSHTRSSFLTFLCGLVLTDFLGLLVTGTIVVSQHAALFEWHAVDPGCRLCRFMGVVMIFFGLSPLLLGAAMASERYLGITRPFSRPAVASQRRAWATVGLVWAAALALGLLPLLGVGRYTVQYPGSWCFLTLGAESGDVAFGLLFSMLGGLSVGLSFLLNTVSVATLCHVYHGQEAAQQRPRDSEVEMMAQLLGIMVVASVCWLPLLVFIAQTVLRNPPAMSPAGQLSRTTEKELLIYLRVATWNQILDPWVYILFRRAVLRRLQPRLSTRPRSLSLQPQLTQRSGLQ
Description: The ability of 1-(3,4-dimethoxyphenyl)-4-methyl-5-ethyl-7-methoxy-8-hydroxy-5H-2,3-benzodiazepine to inhibit the binding of [^3H]SQ 29,548 (30-60 Ci/mmol) was determined via the human platelet-based assay of Hedberg et al., “Characterization of [^3H]SQ 29,548 as a High Affinity Radioligand Binding to Thromboxane A2—Receptors in Human Platelets.”, J. Pharmacol. Exp. Ther. 245: 786-792 (1988), with modifications. TXA2 is a very unstable molecule, thus a surrogate ligand of known affinity for the TXA2 receptor is required as a standard for determination of binding affinity of new potential TXA2 ligands. [^3H]SQ 29,548 is a ligand with known binding affinity for the TXA2 receptor. [^3H]SQ 29,548 has been employed as a TXA2 ligand in several published studies, is accepted as a TXA2 binding standard, and is thus useful as a standard in assessing the binding affinity of new compounds to the TXA2 receptor. See also, Armstrong, R. A., Jones, R. L., et al. “Ligand Binding to Thromboxane Receptors on Human Platelets: Correlation with Biological Activity.” Brit. Jrnl. Pharmac. 79:953-964 (1983), the entire disclosures of which are incorporated herein by reference.
as §1, with “25” for “50”, “7.4) containing 138 mM NaCl, 5 mM KCl, 5 mM MgCl2, 5.5 mM dextrose, and 2 mM EDTA” for “7.7)”, “minutes. […]” for “minutes.”, “thromboxane A2” for “adenosine”

[3] = tested on: Male Swiss mice; experiment: Mouse maximal electroshock test; type: in vivo; details: for Duration of tonic seizure Mean ± SEM: i.p., about 30 min before electroshock, mice; for anticonvulsant activity: vs. vehicle
Description: In this model of tonic-clonic seizure activity, seizures were produced by application of an AC current via corneal electrodes. The maximal electroshock model is commonly employed to assay anticonvulsant activity. See, Swinyard et al., J. Pharmacol. Exp. Therap., 1952, 106, 319-330; the entire disclosure of which is incorporated herein by reference.
Each animal was dosed with one of:
(1) diazepam, 20 mg/kg dissolved in normal saline as a reference standard;
(2) 1-(3,4-dimethoxyphenyl)-4-methyl-5-ethyl-7-methoxy-8-hydroxy-5H-2,3-benzodiazepine at a dose of 15, 30, 45 or 60 mg/kg; dissolved in 15% DMSO, 35% PEG and 50% deionized water (vehicle); or
(3) vehicle comprising 15% DMSO, 35% PEG and 50% deionized water.
The concentrations of each of the dosed substances were normalized such that the volume of each dose was 10 mL/kg.
Approximately thirty minutes following administration of the above dose, full tonic-clonic seizures were induced in the animals by applying an AC current (50 Hz, 50 mA, 0.2 seconds) using an ECT unit 7800 (Ugo Basile, Comerio, Italy) through corneal electrodes. The appearance and duration of the induced seizures, as characterized by a tonic extension of hindlimbs past 90° were recorded. The seizure data are reproduced in Table 4 showing the seizure data as a mean with a standard error of the mean.

[4] = biological target: T2, LTB4 receptor (Cavia porcellus, UniProt H0VYV8); experiment: Inhibition of [3H]LTB4 binding, guinea pig spleen membrane assay
T2 construct: 1.0 mg/mL of the Guinea pig spleen membrane preparation; from tissue; host or cells: guinea pig spleen membranes
T2 sequence (H0VYV8 1-348): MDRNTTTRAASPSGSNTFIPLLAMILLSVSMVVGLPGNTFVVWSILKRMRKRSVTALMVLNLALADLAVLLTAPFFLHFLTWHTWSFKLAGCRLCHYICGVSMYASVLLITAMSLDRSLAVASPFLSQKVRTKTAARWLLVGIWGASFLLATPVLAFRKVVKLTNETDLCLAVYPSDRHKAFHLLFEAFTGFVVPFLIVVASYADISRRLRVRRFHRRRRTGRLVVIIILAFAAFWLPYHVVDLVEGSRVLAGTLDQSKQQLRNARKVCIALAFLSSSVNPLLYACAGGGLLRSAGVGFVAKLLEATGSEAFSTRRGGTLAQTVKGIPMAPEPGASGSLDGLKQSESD
Description: The ability of 1-(3,4-dimethoxyphenyl)-4-methyl-5-ethyl-7-methoxy-8-hydroxy-5H-2,3-benzodiazepine to inhibit [^3H]LTB4 binding to the LTB4 receptor was determined as follows using the guinea pig spleen membrane assay of Cheng et al., J. Pharmacol. Exp. Ther., 236(1), 126-132, 1986, the entire disclosure of which is incorporated herein by reference.
Reactions were carried out in a phosphate buffer (pH 7.4) containing NaCl, MgCl2, EDTA, and bacitracin. The reaction volume of 150 μL containing 1.0 mg/mL of the Guinea pig spleen membrane preparation and 1 nM [^3H]LTB4, with or without a candidate inhibitor, was incubated at 0-4° C. for 2 hours. Candidate inhibitors included the compounds listed in Table 1 and unlabeled LTB4 as a control. The reaction was terminated by rapid vacuum filtration onto glass fiber filters. The filter was washed with cold buffer, dried and placed in a scintillation vial. Radioactivity trapped onto the filters was determined and compared to control values in order to ascertain any interactions of the test compound with the LTB4 binding site.

[5] = tested on: mice; details: cited from earlier work
[6] = tested on: rats; details: cited from earlier work
[7] = tested on: mice; details: cited from earlier work; remark: listed apart in the source
[8] = tested on: central BZ receptors; details: cited from earlier work
[9] = biological target: peripheral BZ receptors (Homo sapiens, UniProt P30536); details: cited from earlier work
Sequence of peripheral BZ receptors (P30536 whole entry): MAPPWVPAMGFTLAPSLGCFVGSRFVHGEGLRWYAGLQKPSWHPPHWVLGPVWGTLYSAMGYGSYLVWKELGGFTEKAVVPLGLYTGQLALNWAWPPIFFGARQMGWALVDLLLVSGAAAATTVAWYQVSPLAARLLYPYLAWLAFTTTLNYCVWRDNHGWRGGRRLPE

Row | Compound | Adenosine non-selective @ 10 μM (inhibition of [3H]-NECA binding) [1] | inhibition at 10 µM [2] [%] | inhibition at 10 µM [4] [%] | inhibition of aggression [5] [%] | inhibition of muricide [6] [%] | other results
1 | CCC1C(C)=NN=C(c2ccc(OC)c(OC)c2)c2cc(O)c(OC)cc21 (racemic) [Compound 2, 1-(3,4-dimethoxyphenyl)-4-methyl-5-ethyl-7-methoxy-8-hydroxy-5H-2,3-benzodiazepine] | 61.50% | 48.3 | 36 |  |  | Duration of tonic seizure Mean ± SEM ([3]; 15 mg/kg): 9.0 ± 2.5 s; Duration of tonic seizure Mean ± SEM ([3]; 30 mg/kg): 5.5 ± 1.1 s; Duration of tonic seizure Mean ± SEM ([3]; 45 mg/kg): 6.5 ± 1.7 s; anticonvulsant activity ([3]; 60 mg dose): comparable anticonvulsant activity, but fell short of statistical significance; Duration of tonic seizure Mean ± SEM ([3]; 60 mg/kg): 5.7 ± 1.8 s; anticonvulsant activity ([3]; 30 and 45 mg/kg doses): statistically significant anticonvulsant activity; LTB4 % inhibition @ 10 μM ([4]; 10 µM): 35.96%
2 | CCC1C(C)=NN=C(c2ccc(OC)c(OC)c2)c2cc(OC)c(O)cc21 (stereo not drawn) [Compound 1, 1-(3,4-dimethoxyphenyl)-4-methyl-5-ethyl-7-hydroxy-8-methoxy-5H-2,3-benzodiazepine] | 6.73% | 42.7 | 20.4 | 0 | 20 | 
3 | CCC1C(C)=NN=C(c2ccc(O)c(OC)c2)c2cc(OC)c(OC)cc21 (stereo not drawn) [Compound 3, 1-(3-methoxy-4-hydroxyphenyl)-4-methyl-5-ethyl-7,8-dimethoxy-5H-2,3-benzodiazepine] | inactive | 1.98 | 49.9 | 0 | 0 | narcosis-potentiating activity [7]: demonstrate narcosis-potentiating activity
4 | CCC1C(C)=NN=C(c2ccc(OC)c(O)c2)c2cc(OC)c(OC)cc21 (stereo not drawn) [Compound 4, 1-(3-hydroxy-4-methoxyphenyl)-4-methyl-5-ethyl-7,8-dimethoxy-5H-2,3-benzodiazepine] | 4.26% | 25.9 | 63.9 |  |  | 
5 | CCC1C(C)=NN=C(c2ccc(O)c(OC)c2)c2cc(OC)c(O)cc21 (stereo not drawn) [Compound 5, 1-(3-methoxy-4-hydroxyphenyl)-4-methyl-5-ethyl-7-hydroxy-8-methoxy-5H-2,3-benzodiazepine] | 22.40% | 44 |  | 28.6 | 20 | LTB4 % inhibition @ 10 μM [4]: inactive
6 | CCC1C(C)=NN=C(c2ccc(OC)c(O)c2)c2cc(OC)c(O)cc21 (stereo not drawn) [Compound 6, 1-(3-hydroxy-4-methoxyphenyl)-4-methyl-5-ethyl-7-hydroxy-8-methoxy-5H-2,3-benzodiazepine] | 27.52% | 45.7 |  |  |  | LTB4 % inhibition @ 10 μM [4]: inactive
7 | CN1C(=O)CN=C(c2ccccc2)c2cc(Cl)ccc21 [Diazepam, diazepam] |  |  |  |  |  | Duration of tonic seizure Mean ± SEM ([3]; 20 mg/kg): 1.8 ± 0.7 s
8 | CCC1C(C)=NN=C(c2ccc(OC)c(OC)c2)c2cc(OC)c(OC)cc21 (stereo not drawn) [tofisopam] |  |  |  |  |  | interaction with central BZ receptors [8]: does not interact; binding to peripheral BZ receptors [9]: binds only weakly
9 | Pinane-thromboxane |  |  |  |  |  | Ki ([2]; competitor in the [3H]SQ 29,548 binding assay): 149 nM
